# Compound: Cc1ccc(Nc2nccc(N(C)c3ccc4c(C)n(C)nc4c3)n2)cc1S(N)(=O)=O [Pazopanib] + CC(=O)Nc1cccc(-n2c(=O)n(C3CC3)c(=O)c3c(Nc4ccc(I)cc4F)n(C)c(=O)c(C)c32)c1 [Trametinib] (partner 0.02 µM)
# Test: relative viability (nuclei count vs DMSO), 5 days (fraction); higher = more cells survive
# Settings: first compound 0.01 µM
# Summary of the method: (§1)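 Relative viability equals treated-well nuclei counts divided by vehicle-well nuclei counts. Counts came from 4× images of lung cancer cell lines grown in 1536-well plates for 5 days after pin-tool dosing on the day after seeding. Dosing used one drug alone or a fixed anchor-drug dose plus five library-drug doses (not always all listed) in √10 steps, and values are medians of duplicate plates.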
row,Cell Line,relative viability
1,NCI-H2342,0.778
2,NCI-H838,0.465
3,NCI-H1650,0.725
4,NCI-H2347,0.211
5,PC-14,0.834
6,LCLC-103H,0.589
7,NCI-H596,0.798
8,NCI-H2126,0.506
9,NCI-H2085,0.44
10,HCC-366,0.319
11,NCI-H1666,0.925
12,NCI-H647,0.377
13,LK-2,0.643
14,NCI-H2087,0.223
15,NCI-H1395,0.833
16,H3255,0.512
17,COR-L23,0.511
18,COR-L 105,0.468
19,LOU-NH91,0.721
20,ChaGo-K-1,0.908
21,NCI-H522,0.727
22,SW 900,1.03
23,NCI-H2170,0.909

# Same assay, conditions: first compound 0.03162 µM
row,Cell Line,relative viability
1,NCI-H2342,0.918
2,NCI-H838,0.558
3,NCI-H1650,0.682
4,NCI-H1993,0.451
5,NCI-H2347,0.281
6,PC-14,0.775
7,LCLC-103H,0.725
8,NCI-H596,1.02
9,NCI-H2126,0.503
10,EMC-BAC-2,0.965
11,NCI-H2085,0.518
12,HCC-366,0.328
13,NCI-H1666,0.893
14,NCI-H647,0.48
15,LK-2,0.788
16,NCI-H2087,0.261
17,NCI-H1395,1.14
18,H3255,0.564
19,COR-L23,0.649
20,COR-L 105,0.406
21,LOU-NH91,0.769
22,ChaGo-K-1,0.75
23,NCI-H522,0.771
24,SW 900,0.837
25,HCC-78,0.864
26,NCI-H2170,0.909

# Same assay, conditions: first compound 0.1 µM
row,Cell Line,relative viability
1,NCI-H2342,0.821
2,NCI-H838,0.483
3,NCI-H1650,0.734
4,NCI-H1993,0.576
5,NCI-H2347,0.303
6,PC-14,0.896
7,LCLC-103H,0.68
8,NCI-H596,0.808
9,NCI-H2126,0.599
10,EMC-BAC-2,0.897
11,NCI-H2085,0.568
12,HCC-366,0.346
13,NCI-H1666,0.899
14,NCI-H647,0.487
15,LK-2,0.562
16,NCI-H2087,0.192
17,NCI-H1648,0.452
18,NCI-H1395,1.05
19,H3255,0.617
20,COR-L23,0.698
21,COR-L 105,0.438
22,LOU-NH91,0.848
23,ChaGo-K-1,0.904
24,NCI-H522,0.735
25,HCC-78,0.721
26,NCI-H2170,0.949

# Same assay, conditions: first compound 0.3162 µM
row,Cell Line,relative viability
1,NCI-H2342,0.754
2,NCI-H838,0.599
3,NCI-H1650,0.629
4,NCI-H1993,0.438
5,NCI-H2347,0.282
6,PC-14,1.09
7,LCLC-103H,0.646
8,NCI-H596,0.814
9,NCI-H2126,0.563
10,EMC-BAC-2,0.931
11,NCI-H2085,0.574
12,HCC-366,0.365
13,NCI-H1666,0.884
14,NCI-H647,0.609
15,LK-2,0.565
16,NCI-H2087,0.174
17,NCI-H1648,0.454
18,NCI-H1395,1.01
19,H3255,0.739
20,COR-L23,0.625
21,COR-L 105,0.427
22,LOU-NH91,0.795
23,ChaGo-K-1,0.905
24,NCI-H522,0.786
25,SW 900,0.974
26,HCC-78,0.804
27,NCI-H2170,0.97

# Same assay, conditions: first compound 1 µM
row,Cell Line,relative viability
1,NCI-H2342,0.674
2,NCI-H838,0.594
3,NCI-H1650,0.695
4,NCI-H1993,0.512
5,NCI-H2347,0.281
6,PC-14,0.766
7,LCLC-103H,0.723
8,NCI-H596,0.915
9,NCI-H2126,0.577
10,EMC-BAC-2,1.1
11,NCI-H2085,0.592
12,HCC-366,0.413
13,NCI-H1666,1
14,NCI-H647,0.439
15,LK-2,0.755
16,NCI-H2087,0.242
17,NCI-H1648,0.427
18,NCI-H1395,0.952
19,H3255,0.731
20,COR-L23,0.773
21,COR-L 105,0.58
22,LOU-NH91,0.822
23,ChaGo-K-1,0.901
24,NCI-H522,0.811
25,SW 900,1.03
26,HCC-78,1.06
27,NCI-H2170,0.919

# Compound: Cc1ccc(C(=O)Nc2ccc(CN3CCN(C)CC3)c(C(F)(F)F)c2)cc1C#Cc1cnc2cccnn12 [Ponatinib] + Cc1nc(NC(=O)N2CCC[C@H]2C(N)=O)sc1-c1ccnc(C(C)(C)C(F)(F)F)c1 [Alpelisib] (partner 2 µM)
# Test: as above
# Settings: first compound 0.002 µM
# Summary of the method: as §1
row,Cell Line,relative viability
1,NCI-H838,1.01
2,EBC-1,0.78
3,NCI-H1703,0.299
4,NCI-H1993,0.63
5,NCI-H2347,1
6,PC-14,0.856
7,LCLC-103H,0.89
8,NCI-H596,0.428
9,NCI-H2126,0.779
10,EMC-BAC-2,0.695
11,NCI-H2085,0.881
12,Calu-6,0.956
13,HCC-366,0.375
14,NCI-H1666,0.864
15,NCI-H647,1.12
16,LK-2,1.12
17,NCI-H2087,0.812
18,H3255,0.641
19,COR-L23,0.747
20,COR-L 105,0.976
21,IA-LM,0.756
22,LOU-NH91,0.703
23,A549,0.772
24,HCC-78,0.321
25,NCI-H1299,1.04
26,NCI-H1563,0.998
27,NCI-H2170,0.804
28,ABC-1,1.18

# Same assay, conditions: first compound 0.006325 µM
row,Cell Line,relative viability
1,NCI-H838,0.982
2,EBC-1,0.836
3,NCI-H1703,0.355
4,NCI-H1993,0.793
5,NCI-H2347,1.1
6,PC-14,0.906
7,LCLC-103H,0.969
8,NCI-H596,0.449
9,NCI-H2126,0.769
10,EMC-BAC-2,0.707
11,NCI-H2085,1.01
12,Calu-6,1.04
13,HCC-366,0.43
14,NCI-H1666,1.04
15,NCI-H647,1.25
16,LK-2,1.05
17,NCI-H2087,0.84
18,NCI-H1395,1.03
19,H3255,0.697
20,COR-L23,0.775
21,COR-L 105,0.846
22,IA-LM,0.657
23,LOU-NH91,0.792
24,A549,0.931
25,HCC-78,0.301
26,NCI-H1299,1.09
27,NCI-H1563,0.953
28,NCI-H2170,0.843
29,ABC-1,0.987

# Same assay, conditions: first compound 0.06325 µM
row,Cell Line,relative viability
1,NCI-H838,1.13
2,EBC-1,0.903
3,NCI-H1703,0.225
4,NCI-H1993,0.71
5,NCI-H2347,1.18
6,PC-14,1.05
7,LCLC-103H,1.07
8,NCI-H596,0.495
9,NCI-H2126,0.851
10,EMC-BAC-2,0.82
11,NCI-H2085,1.07
12,Calu-6,1.02
13,HCC-366,0.69
14,NCI-H1666,1.05
15,NCI-H647,1.06
16,LK-2,1.17
17,NCI-H2087,0.932
18,NCI-H1395,1.09
19,H3255,0.743
20,COR-L23,0.844
21,COR-L 105,1.31
22,IA-LM,0.828
23,LOU-NH91,0.822
24,A549,0.949
25,HCC-78,0.408
26,NCI-H1299,0.987
27,NCI-H1563,1
28,NCI-H2170,0.892
29,ABC-1,1.08

# Same assay, conditions: first compound 0.2 µM
row,Cell Line,relative viability
1,NCI-H838,0.812
2,EBC-1,0.846
3,NCI-H1703,0.186
4,NCI-H1993,0.688
5,NCI-H2347,1.02
6,PC-14,0.879
7,LCLC-103H,1.03
8,NCI-H596,0.399
9,NCI-H2126,0.852
10,EMC-BAC-2,0.721
11,NCI-H2085,0.959
12,Calu-6,0.685
13,HCC-366,0.376
14,NCI-H1666,1.07
15,NCI-H647,0.961
16,LK-2,0.668
17,NCI-H2087,0.879
18,NCI-H1395,0.804
19,H3255,0.688
20,COR-L23,0.778
21,COR-L 105,0.935
22,IA-LM,0.722
23,LOU-NH91,0.713
24,A549,0.634
25,HCC-78,0.323
26,NCI-H1299,0.935
27,NCI-H1563,0.789
28,NCI-H2170,0.811
29,ABC-1,0.874

# Compound: Cc1ccc(Nc2nccc(N(C)c3ccc4c(C)n(C)nc4c3)n2)cc1S(N)(=O)=O [Pazopanib] + CCNC(=O)c1noc(-c2cc(C(C)C)c(O)cc2O)c1-c1ccc(CN2CCOCC2)cc1 [Luminespib] (partner 0.01 µM)
# Test: as above
# Settings: first compound 0.01 µM
# Summary of the method: as §1
row,Cell Line,relative viability
1,NCI-H2342,0.671
2,NCI-H1623,0.465
3,NCI-H838,0.351
4,NCI-H1650,0.195
5,NCI-H2347,0.299
6,PC-14,0.155
7,LCLC-103H,0.861
8,NCI-H2126,0.93
9,NCI-H2085,0.461
10,NCI-H1666,1.03
11,NCI-H647,0.244
12,NCI-H2087,0.162

# — the supplement of paper PMC10307832
